In patent publication US20260198495A1, “BINARY INSECTICIDE COMPOSITION AND USE THEREOF” (SHENYANG SINOCHEM AGROCHEMICALS R & D CO., LTD., priority 2022, published 2026):
In brackets after ≈: the same amount, converted by molar mass.

Assays:
Format in all cases: in vivo
[1] = system: adult Phyllotreta vittuta Fabr.; test: Joint toxicity of I-72 + acetamiprid, Example 65, Table 65; conditions: 72 h
Method: (§1) Test target: adult Phyllotreta vittuta Fabr.
(§2) Preparation of the pesticide solution: according to different test requirements, the test samples were accurately weighed respectively with an electronic analytical balance. The technical pesticides were dissolved in acetone, and then diluted with 0.1% Tween 80 water into a series of pesticide solutions with a certain concentration gradient according to the experimental design dosage.
(§3) Experimental method: first, uniform and consistent potted cabbage seedlings were selected. Then, uniform spraying was performed with the pesticide solution in the order from low dosage to high dosage according to the experimental design. After air-drying in the shade, adult flea beetles were transferred onto the treated cabbage seedlings, and then glass covers were put on them, with about 30-40 adult flea beetles on each seedling and 3 replicates for each treatment. In addition, a blank control was set up.
(§4) The treated test materials were placed in an observation room, and the temperature, humidity and illumination of the observation room could be adjusted as needed. The number of dead and live insects was investigated 72 hours later.

[2] = system: Nilaparvata lugens (Stal) nymphs; test: Joint toxicity of I-72 + buprofezin, Example 52, Table 52; conditions: 72 h
Method: (§5) Test target: Nilaparvata lugens (Stal) nymphs, a sensitive strain reared indoors.
as §2
(§6) Experimental method: the activity of the mixture against the Nilaparvata lugens (Stal) nymphs was determined by adopting the potted-seedling spraying method. First, rice seedlings were planted in culture pots. Uniform spraying was performed with the pesticide solution in the order from low dosage to high dosage according to the experimental design, with 2 mL for each seedling. Then, Nilaparvata lugens nymphs of uniform size were transferred onto the rice seedlings, with 3 replicates for each treatment. In addition, a blank control was set up.
as §4, with “later. […] Then, the co-toxicity coefficient of each ratio was calculated using the Sun Y-P method to evaluate the mixing effect, as in Example 1.” for “later.”

[3] = system: 3rd-instar larvae of Chilo suppressalis (Walker); test: Joint toxicity of I-72 + chlorantraniliprole, Example 57, Table 57; conditions: in Oryza sativa, 72 h
Method: (§7) Test target: 3rd-instar larvae of Chilo suppressalis (Walker).
as §2
(§8) Experimental method: first, tender rice stems were selected and dipped in the prepared pesticide solution for 10 s in the order from low dosage to high dosage according to the experimental design. After natural air-drying in the shade, they were placed in a 9-cm-diameter Petri dish with filter paper, and uniform and healthy test insects were introduced, with 10 insects for each treatment and 3 replicates for each treatment. In addition, a blank control (CK) was set up.
as §4, with “later. […] Then, the co-toxicity coefficient of each ratio was calculated using the Sun Y-P method to evaluate the mixing effect, as in Example 1.” for “later.”

[4] = system: Myzus persicae (Sulzer) nymphs; test: whole plant or invertebrate; conditions: in Brassica oleracea, 48 h
Method: (§9) Test target: Myzus persicae (Sulzer) nymphs, a sensitive strain reared indoors.
as §2
(§10) Experimental method: first, cabbage leaves with uniform and consistent Myzus persicae (Sulzer) were selected, with about 30-40 insects on each leaf. Then, they were evenly sprayed with the pesticide solution in the order from low dosage to high dosage according to the experimental design, with 1.5 mL of the solution for each leaf and 3 replicates for each treatment. In addition, a blank control was set up.
(§11) The treated test materials were placed in an observation room, and the temperature, humidity and illumination of the observation room could be adjusted as needed. The number of dead and live insects was investigated 48 hours later.

[5] = system: adult Phyllotreta vittuta Fabr.; test: Joint toxicity of I-72 + cyantraniliprole, Example 63, Table 63; conditions: 72 h
Method: as §1, §2, §3
as §4, with “later. […] Then, the co-toxicity coefficient of each ratio was calculated using the Sun Y-P method to evaluate the mixing effect (the same as in Example 1).” for “later.”

[6] = system: Myzus persicae (Sulzer) nymphs; test: Joint toxicity of I-72 + cyantraniliprole, Example 59, Table 59; conditions: in Brassica oleracea, 48 h
Method: as §9, §2, §10
as §11, with “later. […] Then, the co-toxicity coefficient of each ratio was calculated using the Sun Y-P method to evaluate the mixing effect (the same as in Example 1).” for “later.”

[7] = system: Liriomyza sativae Blanchard larvae; test: Joint toxicity of I-72 + cyromazine, Example 55, Table 55; conditions: in Phaseolus vulgaris
Method: Test target: Liriomyza sativae Blanchard larvae.
as §2
Experimental method: first, kidney bean seedlings with the Liriomyza sativae Blanchard larvae (the larvae had just invaded and formed mines) were selected. Spraying treatments were performed in the order from low dosage to high dosage according to the experimental design, with 3 replicates for each treatment. In addition, a blank control was set up.
(§12) The treated test materials were placed in an observation room, and the temperature, humidity and illumination of the observation room could be adjusted as needed. After the larvae in the blank control group pupated, the numbers of dead and live insects were then counted. […] Then, the co-toxicity coefficient of each ratio was calculated using the Sun Y-P method to evaluate the mixing effect (the same as in Example 1).

[8] = system: Frankliniella occidentalis nymphs; test: whole plant or invertebrate; conditions: in Phaseolus vulgaris, foliar, 48 h
Method: Test target: Frankliniella occidentalis nymphs.
as §2
as §8, with “first, kidney bean leaves” for “first, tender rice stems”, “with 20-30” for “with 10”, “control” for “control (CK)”
as §12, with “The number” for “After the larvae in the blank control group pupated, the numbers”, “was investigated 48 hours later.” for “were then counted.”

[9] = system: Myzus persicae (Sulzer) nymphs; test: Joint toxicity of I-72 + fenvalerate, Example 46, Table 46; conditions: in Brassica oleracea, 48 h
Method: as §9, §2, §10
as §12, with “The number” for “After the larvae in the blank control group pupated, the numbers”, “was investigated 48 hours later.” for “were then counted.”

[10] = system: 3-instar larvae of Ostrinia furnacnlis Guenee; test: Joint toxicity of I-72 + flubendiamide, Example 61, Table 61; conditions: in Zea mays, 72 h
Method: Test target: 3-instar larvae of Ostrinia furnacnlis Guenee.
as §2
as §8, with “corn” for “rice”, “control” for “control (CK)”
as §12, with “The number” for “After the larvae in the blank control group pupated, the numbers”, “was investigated 72 hours later.” for “were then counted.”

[11] = system: 2nd-instar larvae of Mythimna separata; test: Joint toxicity of I-72 + hexaflumuron, Example 56, Table 56; conditions: in Zea mays, foliar, 72 h
Method: Test target: 2nd-instar larvae of Mythimna separata.
as §2
as §8, with “corn leaves” for “tender rice stems”, “control” for “control (CK)”
as §12, with “The number” for “After the larvae in the blank control group pupated, the numbers”, “was investigated 72 hours later.” for “were then counted.”

[12] = system: Nilaparvata lugens (Stal) nymphs; test: Joint toxicity of I-72 + imidacloprid, Example 70, Table 70; conditions: 72 h
Method: as §5, §2, §6
as §12, with “The number” for “After the larvae in the blank control group pupated, the numbers”, “was investigated 72 hours later.” for “were then counted.”

[13] = system: 2nd-instar larvae of Spodoptera exigua Hübner; test: Joint toxicity of I-72 + lufenuron, Example 54, Table 54; conditions: in Brassica oleracea, foliar, 72 h
Method: (§13) Test target: 2nd-instar larvae of Spodoptera exigua Hübner.
as §2
as §8, with “cabbage leaves” for “tender rice stems”, “control” for “control (CK)”
as §12, with “The number” for “After the larvae in the blank control group pupated, the numbers”, “was investigated 72 hours later.” for “were then counted.”

[14] = system: 3rd-instar larvae of Chilo suppressalis (Walker); test: Joint toxicity of I-72 + methoxyfenozide, Example 53, Table 53; conditions: in Oryza sativa, 72 h
Method: as §7, §2
as §8, with “control” for “control (CK)”
as §12, with “The number” for “After the larvae in the blank control group pupated, the numbers”, “was investigated 72 hours later.” for “were then counted.”

[15] = system: Aphis gossypii Glover nymphs; test: Joint toxicity of I-72 + nitenpyram, Example 67, Table 67; conditions: 48 h
Method: Test target: Aphis gossypii Glover nymphs, a sensitive strain reared indoors.
as §2
as §10, with “cotton” for “cabbage”, “Aphis gossypii” for “Myzus persicae (Sulzer)”, “mL” for “mL of the solution”
as §12, with “The number” for “After the larvae in the blank control group pupated, the numbers”, “was investigated 48 hours later.” for “were then counted.”

Aphis craccivora nymphs = test: whole plant or invertebrate; conditions: in Vicia faba, 48 h
Method: Test target: Aphis craccivora nymphs, a sensitive strain reared indoors.
as §2
as §10, with “broad bean seedlings” for “cabbage leaves”, “Aphis craccivora” for “Myzus persicae (Sulzer)”, “seedling.” for “leaf.”
as §11

[16] = system: 2nd-instar larvae of Spodoptera exigua Hübner; test: whole plant or invertebrate; conditions: A = compound I-72, B = tetrachlorantraniliprole; cabbage leaf dipping; 72 hours
Method: as §13, §2
as §8, with “cabbage leaves” for “tender rice stems”, “control” for “control (CK)”
as §4

[17] = system: 2nd-instar larvae of Plutella xylostella; test: Joint toxicity of I-72 + tetraniliprole, Example 58, Table 58; conditions: A = compound I-72, B = tetraniliprole; cabbage leaf dipping; 72 hours
Method: Test target: 2nd-instar larvae of Plutella xylostella.
as §2
as §8, with “cabbage leaves” for “tender rice stems”, “control” for “control (CK)”
as §12, with “The number” for “After the larvae in the blank control group pupated, the numbers”, “was investigated 72 hours later.” for “were then counted.”

[18] = system: 3rd-instar larvae of Yponomeuta evonymallus (Linnaeus); test: Joint toxicity of I-72 + thiamethoxam, Example 66, Table 66; conditions: A = compound I-72, B = thiamethoxam; leaf dipping; 72 hours
Method: Test target: 3rd-instar larvae of Yponomeuta evonymallus (Linnaeus).
as §2
as §8, with “Hylotelephium spectabile leaves” for “tender rice stems”, “control” for “control (CK)”
as §4

[19] = system: Thrips flavus Schrank nymphs; test: Joint toxicity of I-72 + tolfenpyrad, Example 62, Table 62; conditions: in Solanum melongena, 48 h
Method: Test target: Thrips flavus Schrank nymphs.
as §2
Experimental method: first, eggplant seedlings with Thrips flavus Schrank were selected, and the base number was counted. Then, uniform spraying was performed with the pesticide solution in the order from low to high doses according to the experimental design, with 2 mL for each seedling and 3 replicates for each treatment. In addition, a blank control was set up.
as §12, with “The number” for “After the larvae in the blank control group pupated, the numbers”, “was investigated 48 hours later.” for “were then counted.”

[20] = system: Lipaphis erysimi (Kaltenbach); test: Joint toxicity of I-72 + pyrethrin, Example 47, Table 47; conditions: A = compound I-72, B = pyrethrin; cabbage leaf spraying; 48 hours
Method: Test target: Lipaphis erysimi (Kaltenbach).
as §2
as §10, with “Lipaphis erysimi (Kaltenbach)” for “Myzus persicae (Sulzer)”
as §12, with “The number” for “After the larvae in the blank control group pupated, the numbers”, “was investigated 48 hours later.” for “were then counted.”

Molecule: C/C(=N\C#N)N(C)Cc1ccc(Cl)nc1 [acetamiprid]
- LC50 [1]: 7.92 µg/mL

Molecule: CC(C)N1C(=O)N(c2ccccc2)CS/C1=N\C(C)(C)C [buprofezin]
- LC50 [2]: 1.98 µg/mL

Molecule: CNC(=O)c1cc(Cl)cc(C)c1NC(=O)c1cc(Br)nn1-c1ncccc1Cl [chlorantraniliprole]
- LC50 [3]: 1.2 µg/mL

Molecule: CN/C(=N\[N+](=O)[O-])NCc1cnc(Cl)s1 [clothianidin]
- LC50 [4]: 0.513 µg/mL (≈ 2.05 µM)

Molecule: CNC(=O)c1cc(C#N)cc(C)c1NC(=O)c1cc(Br)nn1-c1ncccc1Cl [cyantraniliprole]
- LC50 [5]: 36.2 µg/mL
- LC50 [6]: 1.18 µg/mL

Molecule: Nc1nc(N)nc(NC2CC2)n1 [cyromazine]
- LC50 [7]: 5.06 µg/mL

Molecule: CN/C(=N/CC1CCOC1)N[N+](=O)[O-] (stereo not drawn) [dinotefuran]
- LC50 [8]: 75.3 µg/mL (≈ 372 µM)

Molecule: CC(C)C(C(=O)OC(C#N)c1cccc(Oc2ccccc2)c1)c1ccc(Cl)cc1 (stereo not drawn) [fenvalerate]
- LC50 [9]: 34.4 µg/mL

Molecule: Cc1cc(C(F)(C(F)(F)F)C(F)(F)F)ccc1NC(=O)c1cccc(I)c1C(=O)NC(C)(C)CS(C)(=O)=O [flubendiamide]
- LC50 [10]: 1.02 µg/mL

Molecule: O=C(NC(=O)c1c(F)cccc1F)Nc1cc(Cl)c(OC(F)(F)C(F)F)c(Cl)c1 [hexaflumuron]
- LC50 [11]: 5.57 µg/mL

Molecule: O=[N+]([O-])NC1=NCCN1Cc1ccc(Cl)nc1 [imidacloprid]
- LC50 [12]: 4.9 µg/mL

Molecule: O=C(NC(=O)c1c(F)cccc1F)Nc1cc(Cl)c(OC(F)(F)C(F)C(F)(F)F)cc1Cl (stereo not drawn) [lufenuron]
- LC50 [13]: 12.9 µg/mL

Molecule: COc1cccc(C(=O)NN(C(=O)c2cc(C)cc(C)c2)C(C)(C)C)c1C [methoxyfenozide]
- LC50 [14]: 8.95 µg/mL

Molecule: CCN(Cc1ccc(Cl)nc1)/C(=C/[N+](=O)[O-])NC [nitenpyram]
- LC50 [15]: 0.384 µg/mL

Molecule: CC(c1ccc(C(F)(F)F)nc1)S(C)(=O)=NC#N (stereo not drawn) [sulfoxaflor]
- LC50 (Aphis craccivora nymphs): 0.197 µg/mL (≈ 0.709 µM)

Molecule: CNC(=O)c1cc(Cl)cc(Cl)c1NC(=O)c1cc(Br)nn1-c1ncc(Cl)cc1Cl [tetrachlorantraniliprole]
- LC50 [16]: 0.6491 µg/mL (≈ 1.21 µM)

Molecule: CNC(=O)c1cc(C#N)cc(C)c1NC(=O)c1cc(Cn2nnc(C(F)(F)F)n2)nn1-c1ncccc1Cl [tetraniliprole]
- LC50 [17]: 0.0810 µg/mL

Molecule: CN1COCN(Cc2cnc(Cl)s2)/C1=N\[N+](=O)[O-] [thiamethoxam]
- LC50 [18]: 358.9351 µg/mL

Molecule: CCc1nn(C)c(C(=O)NCc2ccc(Oc3ccc(C)cc3)cc2)c1Cl [tolfenpyrad]
- LC50 [19]: 28.6 µg/mL

Molecule: pyrethrin
- LC50 [20]: 55.3268 µg/mL
